Among the data in ChEMBL document CHEMBL1157833, “Serotonin derivatives as a new class of non-ATP-competitive receptor tyrosine kinase inhibitors” (Bioorg Med Chem, 2010) are IC50 values, retold here.

What is called IC50 is the midpoint of a concentration-inhibition curve.

Molecules are shown by their SMILES. Counter-ions that a name gives are not always drawn.

Assay [1] deals with T1, Vascular endothelial growth factor receptor 3 (Homo sapiens, UniProt P35916). The experiment in a line: Inhibition of VEGFR3 after 30 mins by chemiluminescence ELISA.
Assay [2] concerns the target T2, Vascular endothelial growth factor receptor 2 (Homo sapiens, UniProt P35968). The experiment in a line: Inhibition of VEGFR2 after 30 mins by chemiluminescence ELISA.
The target in assay [3] is T3, Insulin-like growth factor 1 receptor (Homo sapiens, UniProt P08069). The experiment in a line: Inhibition of IGF1R after 30 mins by chemiluminescence ELISA. A general note: ELISA stands for enzyme-linked immunosorbent assay.
Assay [4] concerns the target T4, Epidermal growth factor receptor (Homo sapiens, UniProt P00533). The experiment in a line: Inhibition of EGFR after 30 mins by chemiluminescence ELISA.
Assay [5] in a line: Cytotoxicity against HEPM cells after 24 hrs by WST1 assay. The following applies: Homo sapiens. Type of assay: cell-based.
Assay [6] relates to HT-29. Description: Cytotoxicity against human HT-29 cells after 24 hrs by WST1 assay. Type of assay: functional, cell-based. The following applies: HT-29, 24 h. A general note: Tetrazolium assays rely on reduction of a dye to a coloured formazan, in cell work by metabolically active cells.
Assay [7] deals with HUVEC. Description: Cytotoxicity against HUVEC after 24 hrs by WST1 assay. The class given is cell-based. The conditions noted are these: Homo sapiens.
For assay [8], the system named is HT-29. Description: Antiproliferative activity against human HT-29 cells assessed as BrdU incorporation into mitotic active cells after 24 hrs by luminometry. The conditions noted are these: HT-29, 24 h. Type of assay: functional, cell-based. Background: Dividing cells build labelled thymidine or BrdU into new DNA.
Assay [9] concerns HUVEC. The experiment in a line: Antiproliferative activity against HUVEC assessed as BrdU incorporation into mitotic active cells after 24 hrs by luminometry. The class given is cell-based. The conditions noted are these: Homo sapiens.
Assay [10] can be described thus: Antiproliferative activity against HEPM cells assessed as BrdU incorporation into mitotic active cells after 24 hrs by luminometry. Type of assay: cell-based. The conditions noted are these: Homo sapiens.
In assay [11] the test system is MCF7. The experiment in a line: Antiproliferative activity against human MCF7 cells assessed as BrdU incorporation into mitotic active cells after 24 hrs by luminometry. The following applies: MCF7, 24 h. Type of assay: functional, cell-based.
Assay [12] concerns MCF7. Description: Cytotoxicity against human MCF7 cells after 24 hrs by WST1 assay. Type of assay: functional, cell-based. The conditions noted are these: MCF7, 24 h.
For assay [13], the target named is T3, Insulin-like growth factor 1 receptor. The experiment in a line: Noncompetitive inhibition of IGF1R after 30 mins by chemiluminescence ELISA in presence of 25 uM ATP.
Assay [14] addresses T1, Vascular endothelial growth factor receptor 3. Description: Noncompetitive inhibition of VEGFR3 after 30 mins by chemiluminescence ELISA in presence of 25 uM ATP.
Assay [15] concerns the target T4, Epidermal growth factor receptor.
Description: Noncompetitive inhibition of EGFR after 30 mins by chemiluminescence ELISA in presence of 25 uM ATP
The target of assay [16] is T2, Vascular endothelial growth factor receptor 2. Description: Noncompetitive inhibition of VEGFR2 after 30 mins by chemiluminescence ELISA in presence of 25 uM ATP.
The target of assay [17] is T1, Vascular endothelial growth factor receptor 3. The experiment in a line: Noncompetitive inhibition of VEGFR3 after 30 mins by chemiluminescence ELISA in presence of 250 uM ATP.
The target of assay [18] is T4, Epidermal growth factor receptor. The source holds these as a separate data set.
Description: Noncompetitive inhibition of EGFR after 30 mins by chemiluminescence ELISA in presence of 250 uM ATP
Assay [19] concerns the target T3, Insulin-like growth factor 1 receptor. Description: Noncompetitive inhibition of IGF1R after 30 mins by chemiluminescence ELISA in presence of 50 uM ATP.
The target of assay [20] is T2, Vascular endothelial growth factor receptor 2. Description: Noncompetitive inhibition of VEGFR2 after 30 mins by chemiluminescence ELISA in presence of 250 uM ATP.
The target of assay [21] is T3, Insulin-like growth factor 1 receptor. Description: Noncompetitive inhibition of IGF1R after 30 mins by chemiluminescence ELISA in presence of 250 uM ATP.
In assay [22] the target is T1, Vascular endothelial growth factor receptor 3. Description: Noncompetitive inhibition of VEGFR3 after 30 mins by chemiluminescence ELISA in presence of 50 uM ATP.
The target of assay [23] is T2, Vascular endothelial growth factor receptor 2. Description: Noncompetitive inhibition of VEGFR2 after 30 mins by chemiluminescence ELISA in presence of 50 uM ATP.
Assay [24] has as its target T4, Epidermal growth factor receptor. The source holds these as a separate data set.
Description: Noncompetitive inhibition of EGFR after 30 mins by chemiluminescence ELISA in presence of 50 uM ATP

T2 sequence (P35968 whole entry): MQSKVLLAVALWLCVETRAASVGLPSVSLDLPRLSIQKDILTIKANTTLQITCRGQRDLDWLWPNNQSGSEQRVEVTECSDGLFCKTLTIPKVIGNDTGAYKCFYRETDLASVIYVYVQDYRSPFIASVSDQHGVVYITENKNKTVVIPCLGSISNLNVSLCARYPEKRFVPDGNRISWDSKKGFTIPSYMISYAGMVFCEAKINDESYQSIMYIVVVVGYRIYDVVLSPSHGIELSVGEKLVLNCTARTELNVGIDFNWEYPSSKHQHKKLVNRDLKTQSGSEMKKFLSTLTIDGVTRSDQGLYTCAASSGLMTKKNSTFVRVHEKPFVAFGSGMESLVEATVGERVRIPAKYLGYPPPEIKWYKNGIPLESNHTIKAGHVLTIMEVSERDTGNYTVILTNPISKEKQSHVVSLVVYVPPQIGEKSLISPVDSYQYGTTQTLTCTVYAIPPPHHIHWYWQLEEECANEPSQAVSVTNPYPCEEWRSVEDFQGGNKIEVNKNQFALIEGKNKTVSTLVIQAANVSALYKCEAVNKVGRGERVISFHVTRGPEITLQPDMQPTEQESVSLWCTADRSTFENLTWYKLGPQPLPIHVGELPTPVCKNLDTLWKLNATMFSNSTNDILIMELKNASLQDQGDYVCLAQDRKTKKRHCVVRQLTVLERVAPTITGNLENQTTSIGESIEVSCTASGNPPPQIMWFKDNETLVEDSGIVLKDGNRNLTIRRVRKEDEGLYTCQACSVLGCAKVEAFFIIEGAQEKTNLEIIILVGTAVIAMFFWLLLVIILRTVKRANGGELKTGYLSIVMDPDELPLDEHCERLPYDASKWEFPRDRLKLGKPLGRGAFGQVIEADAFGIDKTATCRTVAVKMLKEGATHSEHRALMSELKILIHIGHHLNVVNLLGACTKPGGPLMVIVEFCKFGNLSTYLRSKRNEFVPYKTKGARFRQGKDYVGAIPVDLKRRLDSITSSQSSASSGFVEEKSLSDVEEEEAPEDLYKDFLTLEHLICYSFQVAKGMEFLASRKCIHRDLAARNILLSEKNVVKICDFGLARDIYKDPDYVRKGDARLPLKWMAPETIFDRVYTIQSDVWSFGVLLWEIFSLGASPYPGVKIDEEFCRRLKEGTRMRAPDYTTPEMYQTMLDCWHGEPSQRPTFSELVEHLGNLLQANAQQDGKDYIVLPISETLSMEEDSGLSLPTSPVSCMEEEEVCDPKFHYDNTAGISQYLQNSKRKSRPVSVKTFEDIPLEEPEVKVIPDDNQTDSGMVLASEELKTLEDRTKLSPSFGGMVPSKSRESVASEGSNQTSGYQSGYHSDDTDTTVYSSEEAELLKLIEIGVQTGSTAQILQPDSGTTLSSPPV
T3 sequence (P08069 31-736 limits assumed): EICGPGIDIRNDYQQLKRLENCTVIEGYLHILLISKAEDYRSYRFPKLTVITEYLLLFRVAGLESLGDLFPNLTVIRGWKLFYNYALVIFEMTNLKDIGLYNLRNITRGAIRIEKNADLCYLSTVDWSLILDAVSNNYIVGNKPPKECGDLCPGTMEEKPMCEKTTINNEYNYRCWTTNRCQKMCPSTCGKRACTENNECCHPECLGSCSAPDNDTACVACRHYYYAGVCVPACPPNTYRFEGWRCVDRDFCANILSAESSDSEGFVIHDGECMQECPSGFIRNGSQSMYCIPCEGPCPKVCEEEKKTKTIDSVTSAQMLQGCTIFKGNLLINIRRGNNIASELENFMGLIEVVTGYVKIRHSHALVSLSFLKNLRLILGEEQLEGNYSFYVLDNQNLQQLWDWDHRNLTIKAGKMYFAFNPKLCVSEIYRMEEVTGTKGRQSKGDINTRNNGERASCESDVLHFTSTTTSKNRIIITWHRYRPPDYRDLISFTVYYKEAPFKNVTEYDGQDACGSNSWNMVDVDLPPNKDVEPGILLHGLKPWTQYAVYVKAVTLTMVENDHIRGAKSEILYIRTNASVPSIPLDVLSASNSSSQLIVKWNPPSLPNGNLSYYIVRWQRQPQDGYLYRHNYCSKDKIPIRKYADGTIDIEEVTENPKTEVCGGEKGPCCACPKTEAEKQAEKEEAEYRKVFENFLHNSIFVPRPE
T3 sequence (P08069 741-1367 limits assumed): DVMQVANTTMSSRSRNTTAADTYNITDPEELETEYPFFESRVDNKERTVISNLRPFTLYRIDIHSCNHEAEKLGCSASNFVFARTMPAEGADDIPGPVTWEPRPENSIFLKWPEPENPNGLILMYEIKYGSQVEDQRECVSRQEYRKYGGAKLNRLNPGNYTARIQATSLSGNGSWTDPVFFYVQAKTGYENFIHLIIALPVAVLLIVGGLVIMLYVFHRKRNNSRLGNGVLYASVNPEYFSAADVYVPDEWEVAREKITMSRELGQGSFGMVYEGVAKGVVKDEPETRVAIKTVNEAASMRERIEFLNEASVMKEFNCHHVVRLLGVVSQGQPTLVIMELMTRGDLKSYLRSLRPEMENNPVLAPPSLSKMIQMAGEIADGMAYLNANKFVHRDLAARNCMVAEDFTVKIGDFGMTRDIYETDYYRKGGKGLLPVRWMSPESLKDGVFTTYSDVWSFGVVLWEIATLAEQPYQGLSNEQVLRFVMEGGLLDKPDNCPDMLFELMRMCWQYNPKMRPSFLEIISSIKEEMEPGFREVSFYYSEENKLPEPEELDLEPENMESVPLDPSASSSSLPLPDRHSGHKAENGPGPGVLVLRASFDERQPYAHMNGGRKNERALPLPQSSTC
T4 sequence (P00533 whole entry): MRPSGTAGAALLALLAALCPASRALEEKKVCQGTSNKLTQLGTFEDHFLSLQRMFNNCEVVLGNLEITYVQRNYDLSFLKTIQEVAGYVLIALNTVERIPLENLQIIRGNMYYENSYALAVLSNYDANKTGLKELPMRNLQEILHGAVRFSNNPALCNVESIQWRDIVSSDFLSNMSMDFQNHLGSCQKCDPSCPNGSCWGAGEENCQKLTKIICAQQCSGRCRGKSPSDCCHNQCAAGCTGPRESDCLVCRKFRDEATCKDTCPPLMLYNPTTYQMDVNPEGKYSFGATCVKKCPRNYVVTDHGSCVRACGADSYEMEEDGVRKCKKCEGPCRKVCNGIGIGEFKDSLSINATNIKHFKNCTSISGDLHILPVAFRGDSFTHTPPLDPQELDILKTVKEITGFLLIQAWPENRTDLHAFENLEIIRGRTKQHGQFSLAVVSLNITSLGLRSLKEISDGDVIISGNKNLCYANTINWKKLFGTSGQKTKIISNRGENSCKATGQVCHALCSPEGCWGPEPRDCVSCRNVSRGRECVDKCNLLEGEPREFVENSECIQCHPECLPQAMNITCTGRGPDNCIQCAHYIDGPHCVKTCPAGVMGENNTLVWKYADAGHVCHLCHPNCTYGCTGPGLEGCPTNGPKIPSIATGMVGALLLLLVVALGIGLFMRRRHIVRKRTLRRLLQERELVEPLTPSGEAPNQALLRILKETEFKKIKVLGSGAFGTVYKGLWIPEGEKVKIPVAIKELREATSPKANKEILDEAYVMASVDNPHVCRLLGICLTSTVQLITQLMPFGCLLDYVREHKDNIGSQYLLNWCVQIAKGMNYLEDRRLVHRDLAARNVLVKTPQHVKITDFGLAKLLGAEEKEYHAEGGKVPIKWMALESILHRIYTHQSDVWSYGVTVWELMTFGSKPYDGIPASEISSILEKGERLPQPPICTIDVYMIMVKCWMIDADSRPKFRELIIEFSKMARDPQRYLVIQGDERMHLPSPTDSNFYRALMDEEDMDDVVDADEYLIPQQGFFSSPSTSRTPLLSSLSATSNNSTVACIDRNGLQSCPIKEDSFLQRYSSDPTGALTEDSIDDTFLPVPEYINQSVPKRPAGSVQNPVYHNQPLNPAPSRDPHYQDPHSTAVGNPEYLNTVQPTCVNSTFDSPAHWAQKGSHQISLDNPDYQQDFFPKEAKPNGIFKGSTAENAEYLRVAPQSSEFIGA

For the compound `COc1ccc(CCCCCn2c3c(c4cc(OCCc5ccc(O)cc5)ccc42)CC(N)CC3)cc1` (stereo unspecified), the 50% inhibitory concentration (IC50) in assay [1] is 1.81 µM; in assay [2], 0.94 µM; in [3], 2.86 µM; in [4], 1.37 µM.
With `COc1ccc(CCCCCn2cc(CCN)c3cc(OCCc4ccc(O)cc4)ccc32)cc1`, the IC50 stood at 2.05 µM in assay [1], 2.17 µM in assay [2], 3.21 µM in assay [3] and 4.4 µM in assay [4].
Regarding `NC1CCc2c(c3cc(OCCc4ccc(O)cc4)ccc3n2CCCCCc2ccc(C(F)(F)F)cc2)C1` (stereo unspecified), the IC50 in assay [1] was determined as 2.27 µM; in assay [2] it was 2.18 µM; in assay [3] it was 5.15 µM; in assay [4] it was 2.75 µM.
For the compound `NCCc1c[nH]c2ccc(O)cc12` [SEROTONIN HYDROCHLORIDE], the IC50 in assay [1], in assay [2], in assay [3] and in [4] was over 50 µM throughout.
Consider `NCCc1c[nH]c2ccc(OCCc3ccc(O)cc3)cc12`, for which the IC50 in [1] was 2.64 µM; in assay [2], 2.03 µM; in assay [3], 1.78 µM; in assay [4], 2.07 µM.
As for `NC1CCc2c(c3cc(OCCc4ccc(O)cc4)ccc3n2CCCc2ccccc2)C1` (stereo unspecified), the half-maximal inhibitory concentration (IC50) is 2.85 µM in assay [1], 2.07 µM in assay [2], 1.33 µM in [3] and 2.5 µM in assay [4].
For `COc1ccc(-c2ccc(Cn3cc(CCN)c4cc(OCCc5ccc(O)cc5)ccc43)cc2)cc1`, the IC50 in assay [5] turned out to be 5.7 µM; in the assay with HT-29 [6] it was 8.5 µM; in assay [1], 0.96 µM; in assay [2], 1.01 µM; with HUVEC [7] it was 3.45 µM; in the assay on HT-29 [8] it was 4.86 µM. Further, the half-inhibitory concentration (IC50) was 0.75 µM in the assay on HUVEC [9]; 1.79 µM in assay [3]; 2.53 µM in assay [10]; 4.79 µM in the assay on MCF7 [11]; 4.93 µM in the assay with MCF7 [12]; 1.25 µM in [4].
With `CN(C)c1ccc(CCCCCn2c3c(c4cc(OCCc5ccc(O)cc5)ccc42)CC(N)CC3)cc1` (stereo unspecified), the IC50 in assay [1] is 1.66 µM; in assay [4] it was 1.91 µM.
Take `NC1CCc2[nH]c3ccc(OCCc4ccc(O)cc4)cc3c2C1` (stereo unspecified): the IC50 in assay [1] was determined as 34.6 µM; in assay [2] it was 27.1 µM; in [3] it was 10.6 µM; in [4], 15.1 µM.
Turning to `NC1CCc2c(c3cc(OCCc4ccc(O)cc4)ccc3n2CCCCCc2ccccc2)C1` (stereo unspecified), the IC50 in assay [5] amounted to 7.76 µM; in assay [13] it was 0.93 µM; in [14], 2.17 µM; with HT-29 [6], 11 µM; in [1], 2.17 µM; in [15], 1.01 µM. In addition, the IC50 in assay [16] was determined as 1.06 µM; in assay [17] it was 2.19 µM; in assay [2], 1.06 µM; in assay [18], 1 µM; in assay [19] it was 0.99 µM; in the assay on HUVEC [7] it was 5.04 µM. Further, the half-inhibitory concentration (IC50) in the assay on HT-29 [8] amounted to 3.81 µM; in assay [20], 1.04 µM; in the assay with HUVEC [9], 1.38 µM; in assay [21], 1.22 µM; in assay [3], 0.93 µM; in [22], 2.11 µM. For the same compound, the IC50 is 1.09 µM in assay [23]; 2.25 µM in [10]; 3.85 µM in the assay with MCF7 [11]; 4.79 µM in the assay with MCF7 [12]; 0.98 µM in [24]; 1.01 µM in assay [4].
On to `NC1CCc2c(c3cc(OCCc4ccc(O)cc4)ccc3n2CCCCCc2ccccn2)C1` (stereo unspecified), for which the values for the IC50 in [2] and in assay [3] were 2.12 µM and 2.8 µM, respectively.
Consider `NCCc1cn(Cc2ccc(-c3cccc(C(F)(F)F)c3)cc2)c2ccc(OCCc3ccc(O)cc3)cc12`, for which the IC50 came out at 6.64 µM in assay [5]; 1.07 µM in assay [13]; 3.01 µM in assay [14]; 7.95 µM in the assay with HT-29 [6]; 3.01 µM in assay [1]; 1.11 µM in assay [15]. For the same compound, the half-inhibitory concentration (IC50) stood at 1.56 µM in [16]; 3.08 µM in assay [17]; 1.56 µM in assay [2]; 1.06 µM in assay [18]; 1.06 µM in assay [19]; 6.32 µM with HUVEC [7]. Also, the IC50 in the assay on HT-29 [8] worked out at 4.38 µM; in assay [20], 1.5 µM; in the assay on HUVEC [9], 1.98 µM; in [21], 1.02 µM; in [3], 1.07 µM; in [22], 2.98 µM. For the same compound, the IC50 in [23] was 1.48 µM; in assay [10] it was 2.74 µM; in the assay on MCF7 [11], 3.57 µM; in the assay on MCF7 [12], 3.34 µM; in [24] it was 1.12 µM; in [4], 1.11 µM.
On to `CSc1ccc(CCCCCn2cc(CCN)c3cc(OCCc4ccc(O)cc4)ccc32)cc1`, for which the IC50 in assay [1] was determined as 2.53 µM; in [2] it was 1.22 µM; in [3] it was 2.25 µM; in [4], 1.92 µM.
With `COCCc1ccc(O)cc1`, the 50% inhibitory concentration (IC50) in [1], in assay [2], in [3] and in assay [4] was over 50 µM throughout.
For the compound `NCCc1cn(CCCCCc2ccccc2)c2ccc(OCCc3ccc(O)cc3)cc12`, the half-maximal inhibitory concentration (IC50) in [1] turned out to be 2.68 µM; in assay [2] it was 2.83 µM; in assay [3], 2.96 µM; in assay [4], 1.63 µM.
In the case of `COc1ccc(CCOc2ccc3c(c2)c(CCN)cn3CCCCCc2ccc(SC)cc2)cc1`, the IC50 worked out at 1.31 µM in assay [1], 1.45 µM in assay [2], 0.98 µM in assay [3] and 2.45 µM in assay [4].
The corresponding values for `NCCc1cn(Cc2ccc(-c3ccccc3)cc2)c2ccc(OCCc3ccc(O)cc3)cc12` are 4.07 µM, 1.17 µM, 2.36 µM and 1.3 µM.
Take `CSc1ccc(CCCCCn2cc(CCNC(=O)OC(C)(C)C)c3cc(OCCc4ccc(O)cc4)ccc32)cc1`: the IC50 in assay [1], in assay [2], in assay [3] and in assay [4] was over 50 µM each time.
